# Experimental data: US11421044B2, “Nitric oxide-releasing antibacterial polymers and scaffolds fabricated therefrom and methods pertaining thereto” (THE UNIVERSITY OF NORTH CAROLINA AT CHAPEL HILL, priority 2018, dated 2022)
# Columns and labels:
# Test in all cases: Planktonic bactericidal assay, 4 h
# Conditions in all cases: 4 h exposure
# S. aureus = format: cell-based, Staphylococcus aureus (ATCC #29213)
# Procedure: (§1) Planktonic bactericidal assay. Bacterial cultures of P. aeruginosa, E. coli, E. faecalis, S. aureus, multidrug-resistant (MDR) P. aeruginosa, and methicillin-resistant S. aureus were grown from frozen (−80° C.) stocks overnight in TSB (3 mL) at 37° C. An aliquot (1 mL) of the overnight solution was recultured in fresh TSB (50 mL) to a concentration of 10^8 CFU mL^−1 and subsequently diluted to 10^6 CFU mL^−1 in PBS (10 mM, pH 7.4). Weighed samples of control (non-NO-releasing) HA, NO-releasing HA, or neomycin sulfate were dissolved in PBS and titrated with 1 M HCl to adjust the pH to 7.4.
# (§2) Samples were added to a 96-well polystyrene plate and serially diluted in PBS so that each well contained 100 μL of control HA, NO-releasing HA, or neomycin. Bacterial solution containing 10^6 CFU mL^−1 (100 μL; 1 vol % TSB supplemented PBS) was added to each well, giving final HA concentrations in the range of 0.25 to 32 mg mL^−1 or neomycin concentrations from 0.5 to 1024 μg mL^−1. The 96-well plate was then incubated at 37° C. for 4 h with gentle shaking. […] Viability of bacteria following treatment with HA or neomycin was determined using a Flash & Go colony counter (IUL; Farmingdale, N.Y.). […] The NO dose required for bactericidal action was calculated by multiplying the MBC4 h of the NO-releasing HA samples (mg mL^−1) with the total NO released in PBS (pH 7.4; μmol NO mg^−1 HA) at 4 h. […]
# P. aeruginosa = format: cell-based, Pseudomonas aeruginosa (ATCC #47085)
# Procedure: as §1, §2
# MDR-P. aeruginosa = format: cell-based, multidrug-resistant P. aeruginosa (ATCC #BAA-2110)
# Procedure: as §1, §2
# E. coli = format: cell-based, Escherichia coli (ATCC #43888)
# Procedure: as §1, §2
# E. faecalis = format: cell-based, Enterococcus faecalis (ATCC #29212)
# Procedure: as §1, §2
# MRSA = format: cell-based, methicillin-resistant S. aureus (ATCC #33591)
# Procedure: as §1, §2
substance,measurement,setting,value
neomycin sulfate,Dose of neomycin for 3-log reduction,S. aureus,2 μg mL^−1
same,Dose of neomycin for 3-log reduction,P. aeruginosa,32 μg mL^−1
same,Dose of neomycin for 3-log reduction,MDR-P. aeruginosa,128 μg mL^−1
same,Dose of neomycin for 3-log reduction,E. coli,1 μg mL^−1
same,Dose of neomycin for 3-log reduction,E. faecalis,64 μg mL^−1
same,Dose of neomycin for 3-log reduction,MRSA,>1024 μg mL^−1
